One series deals with Serine protease hepsin (Homo sapiens, UniProt P05981). In words: Inhibition of human recombinant hepsin using H2N(EEdansyl)GKQLRVVNGG (KDabcyl)-NH2 as substrate by fluorometric analysis.
Series [1] in a line: AUC in mouse at 5 mg/kg, po. Type of series: ADME, organism-based. The following applies: in vivo.
Series [2] addresses Hepatocyte growth factor activator/Serine protease hepsin/Suppressor of tumorigenicity 14 protein (Homo sapiens) (UniProt Q9Y5Y6+P05981+Q04756). In words: Inhibition of matripase/hepsin/hepatocyte growth factor activator-mediated HGF activation in human 18Co fibroblasts assessed as scattering of human DU145 cells after 24 hrs by crystal violet staining method. Type of series: cell-based.

The nature of series [3]: Half life in mouse at 1 mg/kg, iv. To be noted: in vivo. Type of series: ADME, organism-based.
Series [4] in a line: Half life in human liver microsomes by LC/MS analysis. It is filed as ADME. On the technique in general: Liver microsomes are a subcellular fraction often used to study metabolism.
Series [5] in a line: Cmax in mouse at 5 mg/kg, po. It is filed as ADME, organism-based. Further details: dose 5 mg/kg, route oral. To be noted: in vivo.
The target in a further series is Coagulation factor X (Homo sapiens, UniProt P00742). Nature of the series: Inhibition of human recombinant factor 10a using H2N(EEdansyl)GKQLRVVNGG (KDabcyl)-NH2 as substrate by fluorometric analysis.
Series [6] can be described thus: Half life in mouse liver microsomes by LC/MS analysis. Type of series: ADME.
Series [7] in a line: Volume of distribution in mouse at 1 mg/kg, iv. To be noted: in vivo. Type of series: ADME, organism-based.
Series [8] is described as follows: Oral bioavailability in mouse at 5 mg/kg. It is filed as ADME, organism-based. The following applies: in vivo.
The target in series [9] is T1, Suppressor of tumorigenicity 14 protein (Homo sapiens, UniProt Q9Y5Y6).
T1 sequence (Q9Y5Y6 whole entry): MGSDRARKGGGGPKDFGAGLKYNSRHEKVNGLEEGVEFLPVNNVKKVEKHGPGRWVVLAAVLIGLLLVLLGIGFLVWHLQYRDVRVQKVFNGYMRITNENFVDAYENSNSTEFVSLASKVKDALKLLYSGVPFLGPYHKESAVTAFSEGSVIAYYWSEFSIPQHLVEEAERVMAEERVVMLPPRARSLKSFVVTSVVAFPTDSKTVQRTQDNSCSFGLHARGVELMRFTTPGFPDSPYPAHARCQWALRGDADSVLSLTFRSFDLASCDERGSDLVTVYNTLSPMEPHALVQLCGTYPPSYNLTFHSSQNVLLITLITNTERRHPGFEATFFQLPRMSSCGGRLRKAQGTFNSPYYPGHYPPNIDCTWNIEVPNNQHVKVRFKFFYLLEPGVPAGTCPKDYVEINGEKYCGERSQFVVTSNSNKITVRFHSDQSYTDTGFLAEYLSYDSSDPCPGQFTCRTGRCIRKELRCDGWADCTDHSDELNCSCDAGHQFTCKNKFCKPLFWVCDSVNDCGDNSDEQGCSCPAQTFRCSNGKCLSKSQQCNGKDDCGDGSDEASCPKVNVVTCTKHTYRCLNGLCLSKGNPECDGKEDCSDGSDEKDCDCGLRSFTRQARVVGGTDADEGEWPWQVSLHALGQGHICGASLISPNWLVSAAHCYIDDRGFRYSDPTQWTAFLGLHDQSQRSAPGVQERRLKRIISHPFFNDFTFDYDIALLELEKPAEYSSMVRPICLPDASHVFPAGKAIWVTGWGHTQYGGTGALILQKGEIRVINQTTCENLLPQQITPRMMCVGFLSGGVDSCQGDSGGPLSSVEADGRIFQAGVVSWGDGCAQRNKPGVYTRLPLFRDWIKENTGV
In words: Inhibition of human recombinant matripase catalytic domain using H2N(EEdansyl)GKQLRVVNGG (KDabcyl)-NH2 as substrate by fluorometric analysis.

In a further series the target is Trypsin (Homo sapiens, UniProt P07477+P07478+P35030). In words: Inhibition of human recombinant trypsin using H2N(EEdansyl)GKQLRVVNGG (KDabcyl)-NH2 as substrate by fluorometric analysis. It is filed as protein assay.
Series [10] is described as follows: Lipophilicity, logD of the compound at pH 7.4 by shake-flask method. Type of series: physicochemical. To be noted: buffer.
Series [11] in a line: Clearance in mouse at 1 mg/kg, iv. Type of series: ADME, organism-based. To be noted: in vivo.
Series [12] in a line: Kinetic solubility of the compound at pH 7.4. It is filed as physicochemical. To be noted: buffer, read-out: Kinetic_solubility.
In the next series the target is Prothrombin (Homo sapiens, UniProt P00734). In words: Inhibition of human recombinant thrombin using H2N(EEdansyl)GKQLRVVNGG (KDabcyl)-NH2 as substrate by fluorometric analysis.
Series [13] in a line: AUC in mouse at 1 mg/kg, iv. It is filed as ADME, organism-based. The following applies: in vivo.
Series [14] deals with T2, Hepatocyte growth factor activator serine protease (Homo sapiens, UniProt Q04756).
T2 sequence (Q04756 whole entry): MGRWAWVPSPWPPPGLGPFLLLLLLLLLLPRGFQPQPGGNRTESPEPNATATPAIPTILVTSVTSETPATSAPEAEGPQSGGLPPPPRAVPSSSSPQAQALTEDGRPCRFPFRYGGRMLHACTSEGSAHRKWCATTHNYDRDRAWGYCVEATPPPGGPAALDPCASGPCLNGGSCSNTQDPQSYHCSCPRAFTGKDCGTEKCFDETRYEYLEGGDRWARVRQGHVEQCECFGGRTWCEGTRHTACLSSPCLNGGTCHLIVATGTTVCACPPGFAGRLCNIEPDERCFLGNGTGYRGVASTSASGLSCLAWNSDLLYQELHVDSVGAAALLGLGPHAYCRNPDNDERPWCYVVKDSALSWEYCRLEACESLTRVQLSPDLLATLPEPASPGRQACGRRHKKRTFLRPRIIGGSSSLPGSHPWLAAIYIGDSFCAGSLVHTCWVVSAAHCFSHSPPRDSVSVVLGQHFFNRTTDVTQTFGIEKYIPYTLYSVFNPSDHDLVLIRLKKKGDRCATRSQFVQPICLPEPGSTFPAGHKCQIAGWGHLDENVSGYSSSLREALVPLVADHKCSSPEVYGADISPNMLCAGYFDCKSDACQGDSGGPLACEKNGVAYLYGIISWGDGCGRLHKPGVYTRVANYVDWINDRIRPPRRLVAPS
In words: Inhibition of human recombinant hepatocyte growth factor activator using H2N(EEdansyl)GKQLRVVNGG (KDabcyl)-NH2 as substrate by fluorometric analysis. It is filed as single protein.

Consider 1 molecule from ChEMBL document CHEMBL3779883, “Design and Synthesis of Nonpeptide Inhibitors of Hepatocyte Growth Factor Activation” (ACS Med Chem Lett, 2016).

pKi: −log10 of the molar value. Converted amounts (≈) assume the structure as drawn.

Hepatocyte growth factor activator/Serine protease hepsin/Suppressor of tumorigenicity 14 protein (Homo sapiens), sequence (P05981 whole entry, looked up, one chain of several): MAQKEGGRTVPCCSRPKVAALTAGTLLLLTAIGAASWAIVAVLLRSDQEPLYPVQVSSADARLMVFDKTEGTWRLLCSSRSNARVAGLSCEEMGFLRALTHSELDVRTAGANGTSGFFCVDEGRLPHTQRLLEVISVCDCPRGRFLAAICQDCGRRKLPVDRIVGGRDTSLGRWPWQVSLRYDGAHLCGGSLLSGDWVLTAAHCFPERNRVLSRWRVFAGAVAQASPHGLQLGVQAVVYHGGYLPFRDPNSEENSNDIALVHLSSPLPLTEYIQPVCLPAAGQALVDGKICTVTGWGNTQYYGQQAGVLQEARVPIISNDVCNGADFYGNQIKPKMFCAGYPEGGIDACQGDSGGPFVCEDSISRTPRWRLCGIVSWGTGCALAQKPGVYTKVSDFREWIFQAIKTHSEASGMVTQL
Serine protease hepsin, sequence (P05981 1-162 limits assumed): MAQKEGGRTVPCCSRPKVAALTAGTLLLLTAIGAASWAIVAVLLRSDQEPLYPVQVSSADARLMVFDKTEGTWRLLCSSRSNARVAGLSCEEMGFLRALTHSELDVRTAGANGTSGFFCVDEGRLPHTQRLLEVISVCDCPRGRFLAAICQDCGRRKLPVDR
Serine protease hepsin, sequence (P05981 163-417 limits assumed): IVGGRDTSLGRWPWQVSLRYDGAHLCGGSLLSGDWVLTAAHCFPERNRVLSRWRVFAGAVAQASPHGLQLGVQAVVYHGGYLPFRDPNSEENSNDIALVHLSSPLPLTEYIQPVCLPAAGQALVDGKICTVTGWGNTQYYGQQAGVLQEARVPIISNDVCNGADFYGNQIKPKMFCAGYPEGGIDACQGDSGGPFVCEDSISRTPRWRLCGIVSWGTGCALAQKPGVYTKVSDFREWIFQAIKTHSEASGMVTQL
Coagulation factor X, sequence (P00742 41-179 limits assumed): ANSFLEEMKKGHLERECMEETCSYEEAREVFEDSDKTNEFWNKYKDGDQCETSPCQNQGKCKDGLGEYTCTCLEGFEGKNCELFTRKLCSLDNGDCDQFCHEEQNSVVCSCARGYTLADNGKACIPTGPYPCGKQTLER
Coagulation factor X, sequence (P00742 235-488 limits assumed): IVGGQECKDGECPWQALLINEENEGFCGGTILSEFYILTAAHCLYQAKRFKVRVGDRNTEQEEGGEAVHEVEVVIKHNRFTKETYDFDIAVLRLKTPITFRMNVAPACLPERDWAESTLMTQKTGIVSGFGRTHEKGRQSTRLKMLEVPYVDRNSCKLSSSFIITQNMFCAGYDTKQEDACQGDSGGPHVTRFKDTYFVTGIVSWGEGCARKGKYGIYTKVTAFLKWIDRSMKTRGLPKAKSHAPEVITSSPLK

Broadly, the pKi is −log10 of the Ki, conventionally taken in molar units. Broadly, the AUC is concentration integrated over time. Read a high AUC as high exposure. A word on the half-life: it is how long it takes for the measured level to halve. Low readings indicate fast loss, high ones slow loss. The Cmax is the maximum level reached in the sampled fluid or tissue. As a reminder, the Vd is a proportionality between amount in the body and measured concentration, not a real space. Low values mean little distribution into tissue, high ones wide distribution into tissue. By bioavailability is commonly meant the share of a dose that reaches the circulation, judged against a reference dose that is usually intravenous. Read a low bioavailability as poor availability. As usually defined, the Ki is the dissociation constant of the complex between target and ligand, obtained from inhibition or displacement. One may read the logD as the decadic logarithm of the distribution of all forms, ionised or not, between an organic phase and buffer at a given pH. Low readings indicate lower lipophilicity, high ones higher lipophilicity. As usually defined, the clearance is the rate of elimination divided by the concentration. High values mean a high capacity for elimination, low ones a low capacity for elimination. With `CC1CN(CC2CCN(Cc3ccccc3)CC2)C(=O)N(c2cccc(C(=N)N)c2)C1` (stereo not drawn), the pKi at Serine protease hepsin was 6.27; at Coagulation factor X it was 6.42; in series [9] it was 6.28; at Prothrombin it was 4.94; in [14], 6.32. For the same molecule, the AUC was determined as 3.31 ng·h/mL in [1] and 414 ng·h/mL in [13]. The inhibition result in series [2] is “Dose-dependent effect”. Moreover, the half-life was 5.8 h in [3], 2.7 h in series [4] and 4.93 h in series [6]. Further, the Cmax in series [5] was found to be 4.45 ng/mL. The molecule further registered a Vd in series [7] of 4.49 L/kg. Further, in series [8], the bioavailability is < 1%. In addition, the inhibition constant Ki on Trypsin was found to be 430 nM. The log distribution coefficient (logD) in [10] was -0.49. This molecule gave a clearance in series [11] of 38 mL/min/kg. Besides, the solubility kinetic in [12] was determined as 91.6 µM (≈ 38.4 µg/mL).
